In patent EP4660182A1, “NAV1.7- AND/OR NAV1.8-INHIBITING ARYL PYRIDINE COMPOUNDS, PROCESSES FOR THE PREPARATION THEREOF, COMPOSITIONS, USES, METHODS FOR TREATMENT USING SAME, AND KITS” (Eurofarma Laboratórios S.A., priority 2023, dated 2024):

What was measured:
[1] = target: T1, human sodium channels Nav 1.8 (Homo sapiens, UniProt Q9Y5Y9); assay: Automated whole-cell voltage-clamp (ScreenPatch 384P) sodium current block, Nav 1.8; format: cell-based; details: CHO cells stably expressing human Nav 1.8; inactivation step -40 mV 8 s, test step 10 mV (TP1A); eight concentrations; exposure at least five minutes; room temperature; read-out: Nav1.8 IC50
T1 construct: expressed in transfected cells
In short: (§1)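 Stable CHO lines, whole-cell automated patch clamp at room temperature, ≥5 min exposure, eight concentrations. From -100 mV hold, 8 s at -40 mV, 20 ms at -100 mV, then test pulse to 10 mV (Nav 1.8) or 0 mV (Nav 1.7) at 0.05 Hz; peak-current % block fitted for IC50, averaged over repeats.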

[2] = target: T2, human sodium channels Nav 1.7 (Homo sapiens, UniProt Q15858); assay: Automated whole-cell voltage-clamp (ScreenPatch 384P) sodium current block, Nav 1.7; format: cell-based; details: CHO cells stably expressing human Nav 1.7; inactivation step -40 mV 8 s, test step 0 mV (TP1A); eight concentrations; exposure at least five minutes; room temperature; read-out: Nav1.7 IC50
T2 construct: expressed in transfected cells
In short: as §1

T1 sequence (Q9Y5Y9 whole entry): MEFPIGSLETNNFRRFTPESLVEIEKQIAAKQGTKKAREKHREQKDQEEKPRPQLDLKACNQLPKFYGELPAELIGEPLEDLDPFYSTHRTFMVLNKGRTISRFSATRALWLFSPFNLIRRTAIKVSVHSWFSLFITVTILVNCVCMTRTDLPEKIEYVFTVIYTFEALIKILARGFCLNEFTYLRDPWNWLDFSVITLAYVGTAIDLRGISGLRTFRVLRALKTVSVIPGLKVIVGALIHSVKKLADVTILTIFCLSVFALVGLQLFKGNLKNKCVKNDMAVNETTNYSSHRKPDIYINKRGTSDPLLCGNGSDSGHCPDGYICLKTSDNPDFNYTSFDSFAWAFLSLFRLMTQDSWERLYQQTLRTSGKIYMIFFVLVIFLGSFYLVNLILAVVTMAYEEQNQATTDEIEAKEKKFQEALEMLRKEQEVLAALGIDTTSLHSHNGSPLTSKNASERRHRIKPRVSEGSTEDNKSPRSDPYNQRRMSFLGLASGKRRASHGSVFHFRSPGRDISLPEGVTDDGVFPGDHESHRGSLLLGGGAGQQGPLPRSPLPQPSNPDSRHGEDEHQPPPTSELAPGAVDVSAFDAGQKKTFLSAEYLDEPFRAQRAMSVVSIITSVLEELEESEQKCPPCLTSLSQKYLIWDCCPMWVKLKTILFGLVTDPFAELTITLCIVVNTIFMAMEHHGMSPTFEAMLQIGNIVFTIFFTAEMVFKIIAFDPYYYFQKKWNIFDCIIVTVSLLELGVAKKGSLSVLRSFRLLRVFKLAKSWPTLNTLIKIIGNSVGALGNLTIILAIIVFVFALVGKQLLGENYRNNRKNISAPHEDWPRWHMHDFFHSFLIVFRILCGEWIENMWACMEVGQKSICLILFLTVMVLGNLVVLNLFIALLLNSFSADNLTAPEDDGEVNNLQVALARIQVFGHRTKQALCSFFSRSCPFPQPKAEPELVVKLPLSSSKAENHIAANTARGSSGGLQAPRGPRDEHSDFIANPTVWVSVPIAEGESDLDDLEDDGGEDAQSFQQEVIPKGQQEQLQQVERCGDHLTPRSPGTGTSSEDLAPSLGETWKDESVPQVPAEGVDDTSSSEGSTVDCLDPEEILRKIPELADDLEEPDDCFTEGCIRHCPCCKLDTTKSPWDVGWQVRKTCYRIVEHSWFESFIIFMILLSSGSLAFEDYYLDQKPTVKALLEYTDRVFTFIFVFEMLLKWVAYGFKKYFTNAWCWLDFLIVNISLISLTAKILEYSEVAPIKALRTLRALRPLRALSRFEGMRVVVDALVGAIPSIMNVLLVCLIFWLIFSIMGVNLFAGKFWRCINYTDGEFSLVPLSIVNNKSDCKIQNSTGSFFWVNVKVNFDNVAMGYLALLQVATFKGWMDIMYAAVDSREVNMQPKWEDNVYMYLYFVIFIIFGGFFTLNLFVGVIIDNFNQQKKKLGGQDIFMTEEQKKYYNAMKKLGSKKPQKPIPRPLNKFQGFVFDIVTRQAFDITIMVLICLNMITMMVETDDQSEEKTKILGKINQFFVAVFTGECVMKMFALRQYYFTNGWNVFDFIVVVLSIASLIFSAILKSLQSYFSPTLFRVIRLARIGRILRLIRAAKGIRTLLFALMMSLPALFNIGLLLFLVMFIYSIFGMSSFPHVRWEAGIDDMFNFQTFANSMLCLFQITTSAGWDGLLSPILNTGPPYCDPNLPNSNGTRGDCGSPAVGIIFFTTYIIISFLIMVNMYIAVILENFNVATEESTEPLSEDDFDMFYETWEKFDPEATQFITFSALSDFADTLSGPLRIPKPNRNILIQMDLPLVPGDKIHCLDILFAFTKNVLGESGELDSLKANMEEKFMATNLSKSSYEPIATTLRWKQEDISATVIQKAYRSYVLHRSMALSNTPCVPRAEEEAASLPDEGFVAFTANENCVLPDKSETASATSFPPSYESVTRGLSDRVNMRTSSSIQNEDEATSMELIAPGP
T2 sequence (Q15858 whole entry): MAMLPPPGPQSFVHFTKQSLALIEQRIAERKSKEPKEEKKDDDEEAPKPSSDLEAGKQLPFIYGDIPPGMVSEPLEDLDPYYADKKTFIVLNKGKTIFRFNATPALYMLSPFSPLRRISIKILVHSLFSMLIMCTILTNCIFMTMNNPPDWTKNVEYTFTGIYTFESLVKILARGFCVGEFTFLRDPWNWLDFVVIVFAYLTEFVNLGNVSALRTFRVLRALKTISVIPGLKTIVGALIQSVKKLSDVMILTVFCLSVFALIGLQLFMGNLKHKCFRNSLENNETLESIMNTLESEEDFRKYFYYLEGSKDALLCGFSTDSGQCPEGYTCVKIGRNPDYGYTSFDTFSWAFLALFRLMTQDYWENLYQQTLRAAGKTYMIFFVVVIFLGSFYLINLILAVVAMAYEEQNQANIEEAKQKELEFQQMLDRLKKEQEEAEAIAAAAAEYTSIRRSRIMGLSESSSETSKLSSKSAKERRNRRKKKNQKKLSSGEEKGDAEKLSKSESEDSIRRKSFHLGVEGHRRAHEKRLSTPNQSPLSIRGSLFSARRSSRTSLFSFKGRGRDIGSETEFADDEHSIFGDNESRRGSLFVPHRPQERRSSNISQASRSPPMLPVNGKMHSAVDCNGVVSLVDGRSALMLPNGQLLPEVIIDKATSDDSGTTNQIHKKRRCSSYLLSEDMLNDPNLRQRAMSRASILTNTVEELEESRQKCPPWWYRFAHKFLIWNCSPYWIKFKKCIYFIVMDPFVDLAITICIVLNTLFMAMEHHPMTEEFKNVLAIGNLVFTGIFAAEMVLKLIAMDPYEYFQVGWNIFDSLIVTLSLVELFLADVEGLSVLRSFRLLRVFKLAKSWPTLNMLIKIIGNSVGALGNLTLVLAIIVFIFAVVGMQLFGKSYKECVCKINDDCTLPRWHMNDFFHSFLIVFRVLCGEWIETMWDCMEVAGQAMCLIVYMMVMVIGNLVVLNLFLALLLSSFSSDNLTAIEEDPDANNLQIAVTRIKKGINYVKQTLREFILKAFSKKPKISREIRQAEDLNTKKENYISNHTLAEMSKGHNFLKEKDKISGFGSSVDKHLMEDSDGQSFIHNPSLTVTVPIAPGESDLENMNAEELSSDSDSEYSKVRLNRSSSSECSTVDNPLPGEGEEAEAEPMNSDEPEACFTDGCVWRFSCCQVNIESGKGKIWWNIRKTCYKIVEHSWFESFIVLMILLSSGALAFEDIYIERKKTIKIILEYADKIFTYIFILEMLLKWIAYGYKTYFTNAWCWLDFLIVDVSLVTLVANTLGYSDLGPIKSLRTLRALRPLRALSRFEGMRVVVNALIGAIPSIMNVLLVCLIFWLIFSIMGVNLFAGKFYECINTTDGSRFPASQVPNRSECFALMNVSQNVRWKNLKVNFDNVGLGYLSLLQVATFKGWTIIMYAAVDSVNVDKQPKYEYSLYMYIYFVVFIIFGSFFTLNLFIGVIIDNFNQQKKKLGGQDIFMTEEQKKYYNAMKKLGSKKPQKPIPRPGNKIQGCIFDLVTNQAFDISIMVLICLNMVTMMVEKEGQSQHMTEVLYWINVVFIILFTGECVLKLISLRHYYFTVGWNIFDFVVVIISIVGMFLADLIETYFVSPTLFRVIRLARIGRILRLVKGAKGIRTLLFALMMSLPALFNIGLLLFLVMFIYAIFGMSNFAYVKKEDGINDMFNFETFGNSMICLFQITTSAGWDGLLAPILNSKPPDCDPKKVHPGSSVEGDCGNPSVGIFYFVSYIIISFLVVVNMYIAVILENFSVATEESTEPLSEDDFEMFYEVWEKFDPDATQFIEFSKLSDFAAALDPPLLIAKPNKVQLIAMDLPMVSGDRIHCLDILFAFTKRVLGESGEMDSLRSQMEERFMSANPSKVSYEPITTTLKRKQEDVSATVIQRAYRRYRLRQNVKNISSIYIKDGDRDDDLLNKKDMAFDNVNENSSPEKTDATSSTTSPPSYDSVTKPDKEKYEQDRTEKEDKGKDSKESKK

Which results are given for `COc1cnc(F)c(/C=N/NC(=O)c2cncc(-c3ccc(OC(F)F)nc3)c2)c1` [Compound 128, (E)-6'-(difluoromethoxy)-N'-((2-fluoro-5-methoxypyridine-3-yl)methylene)-[3,3'-bipyridine]-5-carbohydrazide]?
IC50 [1]: > 1000 nM; IC50 [2]: > 1000 nM

With `[2H]C([2H])(C)Oc1ccc(-c2cncc(C(=O)N/N=C/c3cc(OC)cnc3F)n2)cn1` [Compound 169, (E)-6-(6-(ethoxy-1,1-d2)pyridine-3-yl)-N'-((2-fluoro-5-methoxypyridine-3-yl)methylene)pyrazine-2-carbohydrazide] as the molecule, how does the IC50 [1] read?
The IC50 was under 500 nM.

And the IC50 [2]?
The IC50 was over 1000 nM.

`CCOc1ccc(-c2cnc(O)c(C(=O)N/N=C/c3cc(OC)cnc3F)n2)cn1` [Compound 65, (E)-6-(6-ethoxypyridine-3-yl)-N'-((2-fluoro-5-methoxypyridine-3-yl)methylene)-3-hydroxypyrazine-2-carbohydrazide] was tested. Which IC50 [1] did it give?
Its IC50 is over 1000 nM.

What about the IC50 [2] of the same molecule?
Its IC50 is over 1000 nM.

How did the IC50 [1] turn out when `CCOc1ccc(-c2cncc(C(=O)N/N=C/c3nccn3CC)n2)cn1` [Compound 60, (E)-6-(6-ethoxypyridine-3-yl)-N'-((1-ethyl-1H-imidazole-2-yl)methylene)pyrazine-2-carbohydrazide] was run?
The IC50 was 500 to 1000 nM.

And the IC50 [2]?
The IC50 was over 1000 nM.

How did the IC50 [1] turn out when `COc1cnc(F)c(/C=N/N(C)C(=O)c2cncc(-c3ccc(OC(F)F)nc3)n2)c1` [Compound 176, (E)-6-(6-(difluoromethoxy)pyridine-3-yl)-N'-((2-fluoro-5-methoxypyridine-3-yl)methylene)-N-methylpyrazine-2-carbohydrazide] was run?
Its IC50 is over 1000 nM.

What about the IC50 [2] of the same molecule?
Its IC50 is over 1000 nM.

For `CCOc1ccc(-c2cnc(O)c(C(=O)N/N=C/c3cccn3C)n2)cn1` [Compound 70, (E)-6-(6-ethoxypyridine-3-yl)-3-hydroxy-N'-((1-methyl-1H-pyrrole-2-yl)methylene)pyrazine-2-carbohydrazide], which IC50 [1] is on record?
Its IC50 is over 1000 nM.

And the IC50 [2]?
Its IC50 is over 1000 nM.

What does the source list for `CCOc1ccc(-c2cncc(C(=O)N/N=C/c3cc(C(C)O)cnc3F)n2)cn1` (stereo not drawn) [Compound 25, (E)-6-(6-ethoxypyridine-3-yl)-N'-((2-fluoro-5-(1-hydroxyethyl)pyridine-3-yl)methylene) pyrazine-2-carbohydrazide]?
IC50 [1]: 500 to 1000 nM; IC50 [2]: > 1000 nM

For `COc1cc(O)c(F)c(/C=N/NC(=O)c2cncc(-c3ccc(OC(F)F)nc3)n2)c1` [Compound 119, (E)-6-(6-(difluoromethoxy)pyridine-3-yl)-N'-(2-fluoro-3-hydroxy-5-methoxybenzylidene)pyrazine-2-carbohydrazide], which IC50 [1] is on record?
The IC50 was 500 to 1000 nM.

And the IC50 [2]?
The IC50 was over 1000 nM.

For `CCOc1ccc(F)c(/C=N/NC(=O)c2cncc(-c3ccc(OC4CC4)nc3)n2)c1` [Compound 80, (E)-6-(6-cyclopropoxypyridine-3-yl)-N'-(5-ethoxy-2-fluorobenzylidene)pyrazine-2-carbohydrazide], which IC50 [1] is on record?
The IC50 was under 500 nM.

And the IC50 [2]?
The IC50 was over 1000 nM.

`COc1ccc(F)c(/C=N/NC(=O)c2cncc(-c3ccc([S+](C)[O-])nc3)n2)c1` (stereo not drawn) [Compound 131, (E)-N'-(2-fluoro-5-methoxybenzylidene)-6-(6-(methylsulfinyl)pyridine-3-yl)pyrazine-2-carbohydrazide] was tested. Which IC50 [1] did it give?
The IC50 was 500 to 1000 nM.

What about the IC50 [2] of the same molecule?
The IC50 was over 1000 nM.

With `CCOc1ccc(-c2cncc(C(=O)N/N=C/c3cc(OC)cnc3F)n2)c(OC)n1` [Compound 154, (E)-6-(6-ethoxy-2-methoxypyridine-3-yl)-N'-((2-fluoro-5-methoxypyridine-3-yl)methylene)pyrazine-2-carbohydrazide] as the molecule, how does the IC50 [1] read?
The IC50 was under 500 nM.

What about the IC50 [2] of the same molecule?
The IC50 was under 500 nM.

For `CCOc1ccc(-c2cccc(C(=O)N/N=C/c3cc(OC)cnc3F)n2)cn1` [Compound 71, (E) -6'-ethoxy-N'-((2-fluoro-5-methoxypyridine-3-yl)methylene)-[2,3'-bipyridine]-6-carbohydrazide], which IC50 [1] is on record?
Its IC50 is under 500 nM.

What about the IC50 [2] of the same molecule?
The IC50 was 500 to 1000 nM.

Which results are given for `CCOc1ccc(F)c(/C=N/NC(=O)c2cncc(-c3ccc(OCC)nc3)n2)c1` [Compound 4, (E)-N'-(5-ethoxy-2-fluorobenzylidene)-6-(6-ethoxypyridine-3-yl)pyrazine-2-carbohydrazide]?
IC50 [1]: < 500 nM; IC50 [2]: > 1000 nM

For `COc1cc(/C=N/NC(=O)c2cncc(-c3ccc(OC4CC4)nc3)n2)ccc1F` [Compound 81, (E)-6-(6-cyclopropoxypyridine-3-yl)-N'-(4-fluoro-3-methoxybenzylidene)pyrazine-2-carbohydrazide], which IC50 [1] is on record?
Its IC50 is under 500 nM.

And the IC50 [2]?
Its IC50 is 500 to 1000 nM.

For `COc1ccc(F)c(/C=N/NC(=O)c2cncc(-c3ccc(OCCC4CN(C)C4)nc3)n2)c1` [Compound 147, (E)-N'-(2-fluoro-5-methoxybenzylidene)-6-(6-(2-(1-methylazetidine-3-yl)ethoxy)pyridine-3-yl)pyrazine-2-carbohydrazide], which IC50 [1] is on record?
The IC50 was over 1000 nM.

And the IC50 [2]?
The IC50 was over 1000 nM.

Which results are given for `COc1ccc(F)c(/C=N/NC(=O)c2cncc(-c3ccc(OCCC4CNC4)nc3)n2)c1` [Compound 141, (E)-6-(6-(2-(azetidin-3-yl)ethoxy)pyridine-3-yl)-N'-(2-fluoro-5-methoxybenzylidene)pyrazine-2-carbohydrazide]?
IC50 [1]: > 1000 nM; IC50 [2]: > 1000 nM

For `CCOc1ccc(-c2cncc(C(=O)N/N=C/c3cc(OC)c(F)cc3F)n2)cn1` [Compound 3, (E)-N'-(2,4-difluoro-5-methoxybenzylidene)-6-(6-ethoxypyridine-3-yl)pyrazine-2-carbohydrazide], which IC50 [1] is on record?
Its IC50 is under 500 nM.

What about the IC50 [2] of the same molecule?
The IC50 was 500 to 1000 nM.

What does the source list for `CCOc1ccc(-c2nc(C(=O)N/N=C/c3cc(OC)ccc3F)cnc2N)cn1` [Compound 63, (E)-5-amino-6-(6-ethoxypyridine-3-yl)-N'-(2-fluoro-5-methoxybenzylidene) pyrazine-2-carbohydrazide]?
IC50 [1]: 500 to 1000 nM; IC50 [2]: > 1000 nM

With `CCOc1ccc(F)c(/C=N/NC(=O)c2cncc(-c3ccc(OC(F)(F)F)nc3)n2)c1` [Compound 91, (E)-N'-(5-ethoxy-2-fluorobenzylidene)-6-(6-(trifluoromethoxy)pyridine-3-yl)pyrazine-2-carbohydrazide] as the molecule, how does the IC50 [1] read?
Its IC50 is under 500 nM.

And the IC50 [2]?
Its IC50 is over 1000 nM.

How did the IC50 [1] turn out when `CCOc1ccc(-c2cncc(C(=O)N/N=C/c3ocnc3C)n2)cn1` [Compound 61, (E)-6-(6-ethoxypyridine-3-yl)-N'-((4-methyloxazole-5-yl)methylene)pyrazine-2-carbohydrazide] was run?
The IC50 was over 1000 nM.

What about the IC50 [2] of the same molecule?
The IC50 was over 1000 nM.

Which results are given for `CCOc1ccc(-c2nc(C(=O)N/N=C/c3cc(OC)cnc3F)cnc2O)cn1` [Compound 67, (E)-6-(6-ethoxypyridine-3-yl)-N'-((2-fluoro-5-methoxypyridine-3-yl)methylene)-5-hydroxypyrazine-2-carbohydrazide]?
IC50 [1]: > 1000 nM; IC50 [2]: > 1000 nM

`COc1cnc(F)c(/C=N/NC(=O)c2cccc(-c3ccc(OC(F)F)nc3)n2)c1` [Compound 125, (E)-6'-(difluoromethoxy)-N'-((2-fluoro-5-methoxypyridine-3-yl)methylene)-[2,3'-bipyridine]-6-carbohydrazide] was tested. Which IC50 [1] did it give?
The IC50 was under 500 nM.

What about the IC50 [2] of the same molecule?
The IC50 was under 500 nM.

Which results are given for `CC[S+]([O-])c1ccc(-c2cncc(C(=O)N/N=C/c3cc(OC)ccc3F)n2)cn1` (stereo not drawn) [Compound 132, (E)-6-(6-(ethylsulfinyl)pyridine-3-yl)-N'-(2-fluoro-5-methoxybenzylidene)pyrazine-2-carbohydrazide]?
IC50 [1]: > 1000 nM; IC50 [2]: > 1000 nM

Which results are given for `COc1ccc(F)c(/C=N/NC(=O)c2cncc(-c3ccc(OCC4CN(C)C4)nc3)n2)c1` [Compound 146, (E)-N'-(2-fluoro-5-methoxybenzylidene)-6-(6-((1-methylazetidine-3-yl)methoxy)pyridine-3-yl)pyrazine-2-carbohydrazide]?
IC50 [1]: > 1000 nM; IC50 [2]: > 1000 nM
